Results from patent US20150105252A1, “SUBSTITUTED PYRAZOLES AS HERBICIDES” (E I DU PONT DE NEMOURS AND COMPANY, priority 2013, published 2015).

What was measured:
[1] = test system: velvetleaf; experiment: Test A postemergence; type: in vivo, Abutilon theophrasti
Summary of the method: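 Visual injury ratings, 0 = no effect to 100 = complete control, taken about 10 days after treatment against untreated controls. Test chemicals, in a non-phytotoxic surfactant-containing solvent, were sprayed onto soil preemergence or onto one- to two-leaf plants (2–10 cm) postemergence, in loam–sand soil under greenhouse conditions.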

[2] = test system: wheat; experiment: Test C postemergence; type: in vivo, Triticum aestivum; settings: for Wheat plant response rating / Plant response rating, Wheat: postemergence; for Wheat plant response rating: 62 g ai/ha, scale 0 to 100
Source text: (§1) Seeds of plant species selected from blackgrass (Alopecurus myosuroides), ryegrass, Italian (Italian ryegrass, Lolium multiflorum), wheat (winter wheat, Triticum aestivum), galium (catchweed bedstraw, Galium aparine), corn (Zea mays), crabgrass, large (large crabgrass, Digitaria sanguinalis), foxtail, giant (giant foxtail, Setaria faberii), johnsongrass (Sorghum halepense), lambsquarters (Chenopodium album), morningglory (Ipomoea coccinea), nutsedge, yellow (yellow nutsedge, Cyperus esculentus), pigweed (redroot pigweed, Amaranthus retroflexus), ragweed (common ragweed, Ambrosia elation), soybean (Glycine max), barnyardgrass (Echinochloa crus-galli), oilseed rape (Brassica napus), waterhemp (common waterhemp, Amaranthus rudis), oat, wild (wild oat, Avena fatua), kochia (Kochia scoparia), Surinam grass (Brachiaria decumbens), foxtail, green (green foxtail, Setaria viridis), goosegrass (Eleusine indica), bromegrass, downy (downy bromegrass, Bromus tectorum), nightshade (eastern black nightshade, Solanum ptycanthum), cocklebur (common cocklebur, Xanthium strumarium), cupgrass, woolly (woolly cupgrass, Eriochloa villosa), bermudagrass (Cynodon dactylon), sunflower, (common oilseed sunflower, Helianthus annuus), Russian thistle (Salsola kali), and velvetleaf (Abutilon theophrasti) were planted into a blend of loam soil and sand and treated preemergence with test chemicals formulated in a non-phytotoxic solvent mixture which included a surfactant.
(§2) At the same time, plants selected from these crop and weed species and also chickweed (common chickweed, Stellaria media), canarygrass (littleseed canarygrass, Phalaris minor), and deadnettle (henbit deadnettle, Lamium amplexicaule), were planted in pots containing Redi-Earth® planting medium (Scotts Company, 14111 Scottslawn Road, Marysville, Ohio 43041) comprising spaghnum peat moss, vermiculite, wetting agent and starter nutrients and treated with postemergence applications of test chemicals formulated in the same manner. Plants ranged in height from 2 to 18 cm (1- to 4-leaf stage) for postemergence treatments. Treated plants and controls were maintained in a greenhouse for 13 to 15 days, after which time all species were compared to controls and visually evaluated. Plant response ratings, summarized in Table C, are based on a scale of 0 to 100 where 0 is no effect and 100 is complete control. A dash (-) response means no test result.

[3] = test system: foxtail, giant; experiment: Test C postemergence; type: in vivo, Setaria faberii; settings: for Foxtail, Giant plant response rating: scale 0 to 100
Source text: as §1, §2

[4] = test system: johnsongrass; experiment: Test C postemergence; type: in vivo, Sorghum halepense; settings: for Johnsongrass plant response rating: scale 0 to 100
Source text: as §1, §2

[5] = test system: lambsquarters; experiment: Test C postemergence; type: in vivo, Chenopodium album; settings: for Lambsquarters plant response rating: scale 0 to 100
Source text: as §1, §2

[6] = test system: chickweed; experiment: Test C postemergence; type: in vivo, Stellaria media; settings: for Chickweed plant response rating: scale 0 to 100
Source text: as §1, §2

[7] = test system: galium; experiment: Test C preemergence; type: in vivo, Galium aparine
Summary of the method: (§3)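 Visual control ratings on a 0–100 scale (100 = complete control) made against untreated controls after 13 to 15 days in greenhouse. Compounds applied in surfactant-containing solvent mixture, either preemergence to loam/sand-sown seeds or postemergence to 1- to 4-leaf plants (2–18 cm) in peat medium.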

[8] = test system: corn; experiment: Test C preemergence; type: in vivo, Zea mays
Summary of the method: as §3

[9] = test system: pigweed; experiment: Test C preemergence; type: in vivo, Amaranthus retroflexus
Source text: as §1, §2

[10] = test system: ragweed; experiment: Test C preemergence; type: in vivo, Ambrosia elation
Summary of the method: as §3

[11] = test system: soybean; experiment: Test C preemergence; type: in vivo, Glycine max
Summary of the method: as §3

[12] = test system: waterhemp; experiment: Test C preemergence; type: in vivo, Amaranthus rudis
Summary of the method: as §3

[13] = test system: blackgrass; experiment: Test C preemergence; type: in vivo, Alopecurus myosuroides; settings: preemergence
Source text: as §1, §2

[14] = test system: wheat; experiment: Test C preemergence; type: in vivo, Triticum aestivum; settings: preemergence
Source text: as §1, §2

[15] = test system: oilseed rape; experiment: Test C preemergence; type: in vivo, Brassica napus; settings: preemergence
Source text: as §1, §2

[16] = Postemergence, 1000 g ai/ha, visual rating after approx. 10 days, 0 to 100 scale (0 no effect, 100 complete control)
[17] = 250 g ai/ha, scale 0 to 100 (0 no effect, 100 complete control)
[18] = 125 g ai/ha, scale 0 to 100, 0 no effect, 100 complete control
[19] = postemergence, 250 g ai/ha, scale 0 to 100 (0 no effect, 100 complete control)
[20] = postemergence, 62 g ai/ha, scale 0 to 100, 0 no effect, 100 complete control
[21] = postemergence, 125 g ai/ha, scale 0 to 100, 0 no effect, 100 complete control
[22] = Preemergence, 16 g ai/ha, scale 0 to 100
[23] = preemergence, 31 g ai/ha, scale 0 to 100 (0 no effect, 100 complete control), 13 to 15 days
[24] = preemergence, 62 g ai/ha, 13 to 15 days, scale 0 to 100, 0 = no effect, 100 = complete control
[25] = preemergence, 125 g ai/ha, scale 0 to 100, 0 is no effect, 100 is complete control
[26] = 31 g ai/ha, visual rating, scale 0 to 100 (0 no effect, 100 complete control), 13 to 15 days
[27] = 62 g ai/ha, scale 0 to 100 (0 no effect, 100 complete control), 13 to 15 days
[28] = 125 g ai/ha, 13 to 15 days, scale 0 to 100, 0 = no effect, 100 = complete control
[29] = 250 g ai/ha, scale 0 to 100, 0 is no effect, 100 is complete control
[30] = preemergence, 31 g ai/ha, visual rating, scale 0 to 100 (0 no effect, 100 complete control), 13 to 15 days
[31] = preemergence, 62 g ai/ha, scale 0 to 100 (0 no effect, 100 complete control), 13 to 15 days
[32] = preemergence, 125 g ai/ha, 13 to 15 days, scale 0 to 100, 0 = no effect, 100 = complete control
[33] = preemergence, 250 g ai/ha, scale 0 to 100, 0 is no effect, 100 is complete control

**Q.** Which results are given for CCc1cc(C(=O)NCC(F)(F)F)nn1Cc1cccc(OC(F)(F)F)c1 [Compound 20]?
**A.** Velvetleaf plant response rating [1, 16]: 90; Wheat plant response rating [2]: 15; Plant response rating, Wheat [2, 17]: 25; Plant response rating, Wheat [2, 18]: 20; Foxtail, Giant plant response rating ([3]; Postemergence, 31 g ai/ha): 10; Plant response rating, Foxtail, Giant [3, 19]: 15; Plant response rating, Foxtail, Giant [3, 20]: 10; Plant response rating, Foxtail, Giant [3, 21]: 10; Johnsongrass plant response rating ([4]; Postemergence, 31 g ai/ha): 0; Plant response rating, Johnsongrass [4, 19]: 10; Plant response rating, Johnsongrass [4, 20]: 0; Plant response rating, Johnsongrass [4, 21]: 5; Lambsquarters plant response rating ([5]; Postemergence, 31 g ai/ha): 60; Plant response rating, Lambsquarters [5, 19]: 75; Plant response rating, Lambsquarters [5, 20]: 60; Plant response rating, Lambsquarters [5, 21]: 65; Chickweed plant response rating ([6]; Postemergence, 31 g ai/ha): 45; Plant response rating, Chickweed [6, 19]: 75; Plant response rating, Chickweed [6, 20]: 45; Plant response rating, Chickweed [6, 21]: 75

**Q.** Which results are given for CCCNC(=O)c1cc(CC)n(Cc2cccc(OC(F)(F)F)c2)n1 [Compound 27]?
**A.** Velvetleaf plant response rating [1, 16]: 100; Wheat plant response rating [2]: 15; Plant response rating, Wheat [2, 17]: 20; Plant response rating, Wheat [2, 18]: 15; Foxtail, Giant plant response rating ([3]; Postemergence, 31 g ai/ha): 0; Plant response rating, Foxtail, Giant [3, 19]: 20; Plant response rating, Foxtail, Giant [3, 20]: 0; Plant response rating, Foxtail, Giant [3, 21]: 10; Johnsongrass plant response rating ([4]; Postemergence, 31 g ai/ha): 0; Plant response rating, Johnsongrass [4, 19]: 5; Plant response rating, Johnsongrass [4, 20]: 0; Plant response rating, Johnsongrass [4, 21]: 5; Lambsquarters plant response rating ([5]; Postemergence, 31 g ai/ha): 50; Plant response rating, Lambsquarters [5, 19]: 65; Plant response rating, Lambsquarters [5, 20]: 50; Plant response rating, Lambsquarters [5, 21]: 50; Chickweed plant response rating ([6]; Postemergence, 31 g ai/ha): 20; Plant response rating, Chickweed [6, 19]: 75; Plant response rating, Chickweed [6, 20]: 20; Plant response rating, Chickweed [6, 21]: 40

**Q.** Which results are given for CCCNC(=O)c1cc(CC)n(Cc2ccnc(C(F)(F)F)c2)n1 [Compound 75]?
**A.** Velvetleaf plant response rating ([1]; Postemergence, 500 g ai/ha, visual rating after approx. 10 days, 0 to 100 scale (0 no effect, 100 complete control)): 100; Velvetleaf plant response rating ([1]; postemergence, 125 g ai/ha, about 10 days, visual rating on 0 to 100 scale (0 no effect, 100 complete control)): 90; Plant response rating, Galium [7, 22]: 90; Galium plant response rating [7, 23]: 100; Plant response rating, Galium [7, 24]: 100; Galium plant response rating [7, 25]: 100; Plant response rating, Corn [8, 22]: 10; Corn plant response rating [8, 23]: 60; Plant response rating, Corn [8, 24]: 98; Corn plant response rating [8, 25]: 100; Plant response rating, Pigweed [9, 22]: 85; Pigweed plant response rating [9, 23]: 100; Plant response rating, Pigweed [9, 24]: 100; Pigweed plant response rating [9, 25]: 100; Plant response rating, Ragweed [10, 22]: 70; Ragweed plant response rating [10, 23]: 90; Plant response rating, Ragweed [10, 24]: 90; Ragweed plant response rating [10, 25]: 100; Plant response rating, Soybean [11, 22]: 35; Soybean plant response rating [11, 23]: 85; Plant response rating, Soybean [11, 24]: 98; Soybean plant response rating [11, 25]: 98; Plant response rating, Waterhemp [12, 22]: 80; Waterhemp plant response rating [12, 23]: 100; Plant response rating, Waterhemp [12, 24]: 100; Waterhemp plant response rating [12, 25]: 100; Plant response rating (scale of 0 to 100), Wheat ([2]; Postemergence, 16 g ai/ha): 0; Wheat plant response rating [2]: 5; Plant response rating, Wheat [2, 18]: 5; Plant response rating (scale of 0 to 100), Foxtail, Giant ([3]; Postemergence, 16 g ai/ha): 15; Foxtail, Giant plant response rating ([3]; Postemergence, 31 g ai/ha): 20; Foxtail, Giant plant response rating ([3]; postemergence, 62 g ai/ha): 25; Plant response rating, Foxtail, Giant [3, 21]: 50; Plant response rating (scale of 0 to 100), Johnsongrass ([4]; Postemergence, 16 g ai/ha): 10; Johnsongrass plant response rating ([4]; Postemergence, 31 g ai/ha): 10; Johnsongrass plant response rating ([4]; postemergence, 62 g ai/ha): 10; Plant response rating, Johnsongrass [4, 21]: 10; Plant response rating (scale of 0 to 100), Lambsquarters ([5]; Postemergence, 16 g ai/ha): 70; Lambsquarters plant response rating ([5]; Postemergence, 31 g ai/ha): 70; Lambsquarters plant response rating ([5]; postemergence, 62 g ai/ha): 85; Plant response rating, Lambsquarters [5, 21]: 90; Plant response rating (scale of 0 to 100), Chickweed ([6]; Postemergence, 16 g ai/ha): 65; Chickweed plant response rating ([6]; Postemergence, 31 g ai/ha): 65; Chickweed plant response rating ([6]; postemergence, 62 g ai/ha): 70; Plant response rating, Chickweed [6, 21]: 85

**Q.** What does the source list for CCCc1cc(C(=O)NOC(C)C)nn1Cc1cc(C(F)(F)F)nn1C [Compound 203]?
**A.** Velvetleaf plant response rating ([1]; Postemergence, 125 g ai/ha, 0 to 100 scale, 0 no effect, 100 complete control): 30; Velvetleaf plant response rating ([1]; Postemergence, 500 g ai/ha, 0 to 100 scale (0 no effect, 100 complete control)): 90; Blackgrass plant response rating [13, 26]: 30; Blackgrass plant response rating [13, 27]: 50; Plant response rating, Blackgrass [13, 28]: 85; Blackgrass plant response rating [13, 29]: 90; Wheat plant response rating [14, 26]: 40; Wheat plant response rating [14, 27]: 75; Plant response rating, Wheat [14, 28]: 90; Wheat plant response rating [14, 29]: 90; Galium plant response rating [7, 30]: 100; Galium plant response rating [7, 31]: 100; Plant response rating, Galium [7, 32]: 100; Galium plant response rating [7, 33]: 100; Corn plant response rating [8, 30]: 5; Corn plant response rating [8, 31]: 50; Plant response rating, Corn [8, 32]: 75; Corn plant response rating [8, 33]: 98; Pigweed plant response rating [9, 30]: 100; Pigweed plant response rating [9, 31]: 100; Plant response rating, Pigweed [9, 32]: 100; Pigweed plant response rating [9, 33]: 100; Ragweed plant response rating [10, 30]: 75; Ragweed plant response rating [10, 31]: 80; Plant response rating, Ragweed [10, 32]: 98; Ragweed plant response rating [10, 33]: 100; Soybean plant response rating [11, 30]: 5; Soybean plant response rating [11, 31]: 5; Plant response rating, Soybean [11, 32]: 35; Soybean plant response rating [11, 33]: 55; Oilseed Rape plant response rating [15, 26]: 50; Oilseed Rape plant response rating [15, 27]: 100; Plant response rating, Oilseed Rape [15, 28]: 100; Oilseed Rape plant response rating [15, 29]: 100; Waterhemp plant response rating [12, 30]: 85; Waterhemp plant response rating [12, 31]: 95; Plant response rating, Waterhemp [12, 32]: 100; Waterhemp plant response rating [12, 33]: 100
